Results as given in ChEMBL document CHEMBL1150462, “Synthesis of 2-O-substituted -D-Gal-(14)--D-GlcNAc-1-0-Bn as specific acceptors for -L-(13) fucosyltransferases” (1992).

Columns and labels:
Ovarian carcinoma cell [1] = experiment: Relative activity was determined at 0.3 mM of compound in ovarian-tumor extract in alpha-L-(1-3) fucosyltransferase assay using [14C]fucose as a ligand; type: functional, Homo sapiens
Homo sapiens [2] = species: Homo sapiens; experiment: Relative activity was determined at 0.3 mM of compound in ovarian cancer sera in alpha-L-(1-3) fucosyltransferase assay using [14C]-fucose as a ligand; type: functional
Homo sapiens [3] = species: Homo sapiens; experiment: (§1) Percentage of fucosyltransferase accepted by the compound in alpha-L-(1-3) fucosyltransferase assay using [14C]fucose as a ligand; type: functional
Ovarian carcinoma cell [4] = experiment: as §1; type: functional, Homo sapiens
[5] = Kinetic constant of the enzyme activity was determined by incorporation of [14C]- fucose as a function of acceptor concentration
Ovarian carcinoma cell [6] = experiment: Percentage of fucosyltransferase accepted by the compound in alpha-L-(1-3) fucosyltransferase assay using [14C]-fucose as a ligand; type: functional, Homo sapiens
Homo sapiens [7] = species: Homo sapiens; experiment: Percentage of fucosyltransferase accepted by the compound in alpha-L-(1-3) fucosyltransferase assay using [14C]fucose as a ligand;=; type: functional

Row | SMILES | Relative activity (Homo sapiens [3]) | Km [5] | Relative activity (Homo sapiens [7]) | Relative activity (Ovarian carcinoma cell [1]) | Relative activity (Homo sapiens [2]) | Relative activity (Ovarian carcinoma cell [4]) | Relative activity (Ovarian carcinoma cell [6])
1 | CC(=O)N[C@@H]1[C@@H](O)[C@H](O[C@@H]2O[C@H](CO)[C@H](O)[C@H](O)[C@H]2O)[C@@H](CO)O[C@H]1O |  |  |  | 5024 c.p.m. | 1620 c.p.m. |  | 
2 | CO[C@H]1[C@H](O[C@H]2[C@H](O)[C@@H](NC(C)=O)[C@H](OCc3ccccc3)O[C@@H]2CO)O[C@H](CO)[C@H](O)[C@@H]1O | 308% | 440 µM |  | 14924 c.p.m. | 5330 c.p.m. | 375% | 
3 | CO[C@H]1[C@H](O[C@H]2[C@H](O)[C@@H](NC(C)=O)C(O)O[C@@H]2CO)O[C@H](CO)[C@H](O)[C@@H]1O (stereo partly specified) | 100% | 1330 µM |  | 3977 c.p.m. | 1730 c.p.m. |  | 100%

Second part, led by results:

Row | Relative activity (Homo sapiens [3]) | Km [5] | Relative activity (Homo sapiens [7]) | SMILES | Relative activity (Ovarian carcinoma cell [1]) | Relative activity (Homo sapiens [2]) | Relative activity (Ovarian carcinoma cell [4]) | Relative activity (Ovarian carcinoma cell [6])
4 |  | 260 µM | 168% | CC(=O)N[C@H]1[C@H](OCc2ccccc2)O[C@H](CO)[C@@H](O[C@@H]2O[C@H](CO)[C@H](O)[C@H](O)[C@H]2O[C@@H]2O[C@@H](C)[C@@H](O)[C@@H](O)[C@@H]2O)[C@@H]1O | 42580 c.p.m. | 7350 c.p.m. |  | 233%
5 | 100% |  |  | CC(=O)N[C@@H]1[C@@H](O)[C@H](O[C@@H]2O[C@H](CO)[C@H](O)[C@H](O)[C@H]2O[C@@H]2O[C@@H](C)[C@@H](O)[C@@H](O)[C@@H]2O)[C@@H](CO)O[C@H]1O | 18291 c.p.m. | 4380 c.p.m. | 100% | 
